Test results as given in article PMC5724689, “Increased Conformational Flexibility of a Macrocycle–Receptor Complex Contributes to Reduced Dissociation Rates” (Chemistry (Weinheim an Der Bergstrasse, Germany), 2017).

Experiments:
[1] = molecular target: T1, 14-3-3ζ (14‐3‐3 isoform ζ) (Homo sapiens, UniProt P63104); test: biochemical; format: binding; conditions: ITC, T = 303.15 K, pH 7.4; mean value of 3 runs
T1 construct: 14-3-3ζ (aa 1-245) with remaining His-Tag; made in house
T1 sequence (P63104 1-245): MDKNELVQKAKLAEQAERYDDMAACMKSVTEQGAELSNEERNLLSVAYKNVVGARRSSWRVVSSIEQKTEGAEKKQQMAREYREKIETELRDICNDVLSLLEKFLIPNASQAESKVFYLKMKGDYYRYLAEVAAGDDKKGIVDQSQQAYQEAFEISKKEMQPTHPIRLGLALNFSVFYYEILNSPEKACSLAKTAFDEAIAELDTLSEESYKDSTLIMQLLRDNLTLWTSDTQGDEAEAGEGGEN

[2] = molecular target: T1, 14-3-3ζ (14‐3‐3 isoform ζ); test: biochemical; format: binding; conditions: for koff: 19F NMR line shape analysis, slow exchange, 50 mM HEPES, 100 mM NaCl, 2 mM MgCl2, 1% DMSO, 10% D2O, pH 7.4, room temperature, error from fitting procedure (Equation S1), read-out: dissociation rate koff (NMR); for association rate kon = koff × Kd^-1 (Figure 2b) / kon: calculated from koff (19F NMR) and ITC-derived Kd; for kon: read-out: association rate kon = koff × Kd^-1

Row | Compound | Kd [1] [nM] | koff [2] [s⁻¹] | association rate kon = koff × Kd^-1 (Figure 2b) [2] [s^-1M^-1 10^6] | kon [2] [M⁻¹ s⁻¹]
1 | CC(C)C[C@H](NC(=O)[C@H](CC(=O)O)NC(=O)[C@H](CC(C)C)NC(=O)[C@]1(C)CCCCCCCC[C@@](C)(NC(=O)CNC(=O)[C@H](CCC(N)=O)NC(=O)CNC(=O)C(F)(F)F)C(=O)N[C@@H](CC(C)C)C(=O)N[C@@H](CC(=O)O)C(=O)N1)C(=O)N[C@@H](C)C(=O)N[C@@H](CO)C(N)=O [MC18] | 362 | 1.58 | 4.38 ±0.47 | 4.38e+06
2 | CC(C)C[C@H](NC(=O)[C@H](CC(=O)O)NC(=O)[C@H](CC(C)C)NC(=O)[C@]1(C)CCCCCCCCCCCC[C@](C)(NC(=O)CNC(=O)[C@H](CCC(N)=O)NC(=O)CNC(=O)C(F)(F)F)C(=O)N[C@@H](CC(C)C)C(=O)N[C@@H](CC(=O)O)C(=O)N1)C(=O)N[C@@H](C)C(=O)N[C@@H](CO)C(N)=O [MC22] | 111 | 0.45 | 4.12 ±0.39 | 4.12e+06
